Values of other authors as cited in PubChem BioAssay AID1259409 (Chemical Carcinogenesis Research Information System (CCRIS), 2018).

System: rodent chemically induced tumor inhibition, incidence and multiplicity
Assay: CCRIS tumor inhibitor studies

C=C1/C(=C\C=C2/CCC[C@]3(C)[C@@H]([C@H](C)CC[C@@H](CC)C(C)C)CC[C@@H]23)C[C@@H](O)C[C@@H]1O
tumour outcome (control, treated, inhibition, significance) (Carcinogen: 7,12-DIMETHYLBENZ[A]ANTHRACENE (57-97-6), Dose [Inhibitor]: 40 MG/KG DIET 1 WK AFTER CARCINOGEN TO END, Route [Inhibitor]: DIET, Species: RAT, Strain/Sex: SPRAGUE-DAWLEY/FEMALE, Target Tissue: Type of Lesion: MAMMARY GLAND: TUMOR, Dose [Carcinogen]: 15 MG AT 50 D OF AGE, ONCE): 85%, 50%, 41%, p<0.05 | tumour outcome (control, treated, inhibition, significance) (Carcinogen: 7,12-DIMETHYLBENZ[A]ANTHRACENE (57-97-6), Dose [Inhibitor]: 40 MG/KG DIET 2 WKS BEFORE CARCINOGEN AND 1 WK AFTER CARCINOGEN, Route [Inhibitor]: DIET, Species: RAT, Strain/Sex: SPRAGUE-DAWLEY/FEMALE, Target Tissue: Type of Lesion: MAMMARY GLAND: TUMOR, Dose [Carcinogen]: 15 MG AT 50 D OF AGE, ONCE): 85%, 70%, 18%, not significant | tumour outcome (control, treated, inhibition, significance) (Carcinogen: 7,12-DIMETHYLBENZ[A]ANTHRACENE (57-97-6), Dose [Inhibitor]: 40 MG/KG DIET 2 WKS BEFORE CARCINOGEN TO END, Route [Inhibitor]: DIET, Species: RAT, Strain/Sex: SPRAGUE-DAWLEY/FEMALE, Target Tissue: Type of Lesion: MAMMARY GLAND: TUMOR, Dose [Carcinogen]: 15 MG AT 50 D OF AGE, ONCE): 85%, 50%, 41%, not calculated | outcome (Carcinogen: AZOXYMETHANE (25843-45-2), Dose [Inhibitor]: 25 UG/KG DIET 2 WKS AFTER CARCINOGEN TO END (STUDY DURATION: 10 WKS), Route [Inhibitor]: DIET, Species: MOUSE, Strain/Sex: CF-1, Target Tissue: Type of Lesion: COLON: TOTAL ABERRANT CRYPT FOCI (SURROGATE FOR COLON TUMOR), Dose [Carcinogen]: 10 MG/KG BW WEEKLY FOR 2 WKS (STUDY DURATION: 10 WKS)): 9.6, 2.0, 79%, not calculated | outcome (Carcinogen: AZOXYMETHANE (25843-45-2), Dose [Inhibitor]: 25 UG/KG DIET 2 WKS BEFORE CARCINOGEN TO 2 WKS AFTER (STUDY DURATION: 10 WKS), Route [Inhibitor]: DIET, Species: MOUSE, Strain/Sex: CF-1, Target Tissue: Type of Lesion: COLON: TOTAL ABERRANT CRYPT FOCI (SURROGATE FOR COLON TUMOR), Dose [Carcinogen]: 10 MG/KG BW WEEKLY FOR 2 WKS (STUDY DURATION: 10 WKS)): 9.6, 2.8, 71%, not calculated | outcome (Carcinogen: AZOXYMETHANE (25843-45-2), Dose [Inhibitor]: 25 UG/KG DIET 2 WKS BEFORE CARCINOGEN TO END (STUDY DURATION: 10 WKS), Route [Inhibitor]: DIET, Species: MOUSE, Strain/Sex: CF-1, Target Tissue: Type of Lesion: COLON: TOTAL ABERRANT CRYPT FOCI (SURROGATE FOR COLON TUMOR), Dose [Carcinogen]: 10 MG/KG BW WEEKLY FOR 2 WKS (STUDY DURATION: 10 WKS)): 9.6, 1.8, 81%, not calculated | outcome (Carcinogen: AZOXYMETHANE (25843-45-2), Dose [Inhibitor]: 25 UG/KG DIET 7 D BEFORE CARCINOGEN TO END OF STUDY, Route [Inhibitor]: DIET, Species: MOUSE, Strain/Sex: CF-1, Target Tissue: Type of Lesion: COLON: ABERRANT CRYPT FOCI (SURROGATE FOR COLON TUMOR), Dose [Carcinogen]: 10 MG/KG BW WEEKLY FOR 2 WKS): 29%, 1.4, 95%, p<0.001 | outcome (Carcinogen: N-METHYL-N-NITROSOUREA ( 684-93-5), Dose [Inhibitor]: 0, 25, 50 UG/KG DIET 2 WKS BEFORE CARCINOGEN CONTINUING FOR 120 D (STUDY DURATION: 120 D), Dose [Inhibitor]: 0, 25, 50 UG/KG DIET 2 WKS BEFORE CARCINOGEN CONTINUING FOR 120 D (STUDY DURATION: 120 D), Route [Inhibitor]: DIET, Species: RAT, Strain/Sex: SPRAGUE-DAWLEY/FEMALE, Target Tissue: Type of Lesion: MAMMARY GLAND: TUMOR, Dose [Carcinogen]: 50 MG/KG BW ONCE): 80%, 53%, 34%, not calculated; 47%, 41%, not calculated | tumour outcome (control, treated, inhibition, significance) (Carcinogen: N-METHYL-N-NITROSOUREA, 684-93-5, Dose [Inhibitor]: 0, 25 UG/KG DIET AT 65 D OF AGE FOR THE DURATION OF THE STUDY (STUDY DURATION: 120 D), Route [Inhibitor]: ORAL, Species: RAT, Strain/Sex: SPRAGUE-DAWLEY, Target Tissue: Type of Lesion: MAMMARY GLAND: TUMOR, Dose [Carcinogen]: 50 MG/KG BW ONCE AT 80 D OF AGE, Promoter: NONE): 12/15 (80%), 8/15 (53%), 33%, not significant | tumour outcome (control, treated, inhibition, significance) (Carcinogen: N-METHYL-N-NITROSOUREA, 684-93-5, Dose [Inhibitor]: 0, 50 UG/KG DIET AT 65 D OF AGE FOR THE DURATION OF THE STUDY (STUDY DURATION: 120 D), Route [Inhibitor]: ORAL, Species: RAT, Strain/Sex: SPRAGUE-DAWLEY, Target Tissue: Type of Lesion: MAMMARY GLAND: TUMOR, Dose [Carcinogen]: 50 MG/KG BW ONCE AT 80 D OF AGE, Promoter: NONE): 12/15 (80%), 7/15 (47%), 41%, p=0.03

CC(O)CCCCCC(=O)c1ccccc1 (stereo not given)
tumour outcome (control, treated, inhibition, significance) (Carcinogen: 4-(METHYLNITROSAMINO)-1-(3-PYRIDYL)-1-BUTANONE, 64091-91-4, Dose [Inhibitor]: 0, 25 UMOL IN 0.1 ML CORN OIL ONCE 2 HR PRIOR TO CARCINOGEN DOSE (STUDY DURATION: 16 WK), Route [Inhibitor]: GAVAGE, Species: MOUSE, Strain/Sex: STRAIN-A/FEMALE, Target Tissue: Type of Lesion: LUNG: ADENOMA, Dose [Carcinogen]: 10 UMOL IN 0.1 ML SALINE ONCE, Promoter: NONE USED): 100%, 100%, 0%, not significant

COc1ccc2cc1Oc1ccc(cc1)C[C@H]1c3c(cc4c(c3Oc3cc5c(cc3OC)CCN(C)[C@@H]5C2)OCO4)CCN1C
tumour outcome (control, treated, inhibition, significance) (Carcinogen: 7,12-DIMETHYLBENZ[A]ANTHRACENE, 57-97-6, Dose [Inhibitor]: 0, 0.005% IN DIET BEGINNING 1 D POST CARCINOGEN TREATMENT AND CONTINUING FOR DURATION OF STUDY (STUDY DURATION: 18 WK), Route [Inhibitor]: ORAL, Species: MOUSE, Strain/Sex: ICR/FEMALE, Target Tissue: Type of Lesion: SKIN: PAPILLOMA, Dose [Carcinogen]: 50 UG IN 100 µL ACETONE ONCE, Promoter: 12-O-TETRADECANOYLPHORBOL-13-ACETATE, 16561-29-8): 100%, 95%, 5%, not significant | tumour outcome (control, treated, inhibition, significance) (Carcinogen: 7,12-DIMETHYLBENZ[A]ANTHRACENE, 57-97-6, Dose [Inhibitor]: 0, 0.005% IN DIET BEGINNING 1 D POST CARCINOGEN TREATMENT AND CONTINUING FOR DURATION OF STUDY (STUDY DURATION: 25 WK), Route [Inhibitor]: ORAL, Species: MOUSE, Strain/Sex: ICR/FEMALE, Target Tissue: Type of Lesion: SKIN: PAPILLOMA, Dose [Carcinogen]: 50 UG IN 100 µL ACETONE ONCE, Promoter: 12-O-TETRADECANOYLPHORBOL-13-ACETATE, 16561-29-8, MEZEREIN, 34807-41-5, Promoter: 12-O-TETRADECANOYLPHORBOL-13-ACETATE, 16561-29-8, MEZEREIN, 34807-41-5): 75%, 45%, 40%, not calculated | tumour outcome (control, treated, inhibition, significance) (Carcinogen: 7,12-DIMETHYLBENZ[A]ANTHRACENE, 57-97-6, Dose [Inhibitor]: 0, 2 UMOL 2/WK 30 MIN PRIOR TO EACH PROMOTER DOSE BEGINNING 1 WK POST CARCINOGEN DOSE (STUDY DURATION: 18 WK), Route [Inhibitor]: DERMAL, Species: MOUSE, Strain/Sex: ICR/FEMALE, Target Tissue: Type of Lesion: SKIN: PAPILLOMA, Dose [Carcinogen]: 50 UG ONCE, Promoter: 12-O-TETRADECANOYLPHORBOL-13-ACETATE, 16561-29-8): 100%, 27%, 73%, not calculated | tumour outcome (control, treated, inhibition, significance) (Carcinogen: 7,12-DIMETHYLBENZ[A]ANTHRACENE, 57-97-6, Dose [Inhibitor]: 0, 20 UMOL/MOUSE 2/WK FOR 18 WK APPLIED 5 MIN PRIOR TO EACH PROMOTER DOSE (STUDY DURATION: 19 WK), Route [Inhibitor]: DERMAL, Species: MOUSE, Strain/Sex: CD-1/FEMALE, Target Tissue: Type of Lesion: SKIN: PAPILLOMA, Dose [Carcinogen]: 100 UG IN 200 µL ACETONE ONCE, Promoter: 12-O-TETRADECANOYLPHORBOL-13-ACETATE, 16561-29-8): 100%, 30%, 70%, p<0.01
